Source: ChEMBL document CHEMBL1201862, “PubChem BioAssay data set” (2004)
Active and inactive are the calls of the source. For most assays here, no stated cut-off is given here; in the data, actives have a measured EC50 and inactives only a lower limit.

Tests used:
Protein RecA = target: T1, Protein RecA (Mycobacterium tuberculosis, UniProt P9WHJ3); experiment: Fluorescence Cell-Free Homogeneous Dose Retest to Identify Inhibitors of RecA-Intein Splicing Activity. [Related pubchem assays (depositor defined):AID2097, AID2223, AID489010, AID492950]; type: functional
T1 sequence (P9WHJ3 whole entry): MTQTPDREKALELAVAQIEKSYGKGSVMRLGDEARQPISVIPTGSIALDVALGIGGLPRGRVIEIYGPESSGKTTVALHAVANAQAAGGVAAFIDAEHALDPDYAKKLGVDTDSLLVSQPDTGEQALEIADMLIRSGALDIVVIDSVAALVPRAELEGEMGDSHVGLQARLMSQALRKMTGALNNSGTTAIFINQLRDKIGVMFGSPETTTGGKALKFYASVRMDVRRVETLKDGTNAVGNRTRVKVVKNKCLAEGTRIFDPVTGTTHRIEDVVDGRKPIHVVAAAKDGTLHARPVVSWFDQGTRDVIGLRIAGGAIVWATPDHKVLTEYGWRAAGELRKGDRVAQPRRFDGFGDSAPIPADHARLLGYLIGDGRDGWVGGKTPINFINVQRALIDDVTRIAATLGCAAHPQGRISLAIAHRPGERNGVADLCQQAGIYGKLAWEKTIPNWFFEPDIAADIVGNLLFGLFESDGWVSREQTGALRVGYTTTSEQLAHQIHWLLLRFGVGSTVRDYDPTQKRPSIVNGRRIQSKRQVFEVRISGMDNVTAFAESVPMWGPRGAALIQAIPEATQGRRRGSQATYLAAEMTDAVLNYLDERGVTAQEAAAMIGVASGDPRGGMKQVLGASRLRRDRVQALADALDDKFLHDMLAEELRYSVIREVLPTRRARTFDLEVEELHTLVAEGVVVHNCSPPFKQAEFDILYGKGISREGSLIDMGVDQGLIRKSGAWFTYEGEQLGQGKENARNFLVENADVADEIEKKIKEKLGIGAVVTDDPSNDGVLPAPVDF

[1] = target: T2, Replicative DNA helicase DnaB (Mycobacterium tuberculosis, UniProt P9WMR3); experiment: DnaB intein splicing inhibitors, dose response, biochemical, cell-free fluorescence (AID 449749); type: functional
T2 sequence (P9WMR3 whole entry): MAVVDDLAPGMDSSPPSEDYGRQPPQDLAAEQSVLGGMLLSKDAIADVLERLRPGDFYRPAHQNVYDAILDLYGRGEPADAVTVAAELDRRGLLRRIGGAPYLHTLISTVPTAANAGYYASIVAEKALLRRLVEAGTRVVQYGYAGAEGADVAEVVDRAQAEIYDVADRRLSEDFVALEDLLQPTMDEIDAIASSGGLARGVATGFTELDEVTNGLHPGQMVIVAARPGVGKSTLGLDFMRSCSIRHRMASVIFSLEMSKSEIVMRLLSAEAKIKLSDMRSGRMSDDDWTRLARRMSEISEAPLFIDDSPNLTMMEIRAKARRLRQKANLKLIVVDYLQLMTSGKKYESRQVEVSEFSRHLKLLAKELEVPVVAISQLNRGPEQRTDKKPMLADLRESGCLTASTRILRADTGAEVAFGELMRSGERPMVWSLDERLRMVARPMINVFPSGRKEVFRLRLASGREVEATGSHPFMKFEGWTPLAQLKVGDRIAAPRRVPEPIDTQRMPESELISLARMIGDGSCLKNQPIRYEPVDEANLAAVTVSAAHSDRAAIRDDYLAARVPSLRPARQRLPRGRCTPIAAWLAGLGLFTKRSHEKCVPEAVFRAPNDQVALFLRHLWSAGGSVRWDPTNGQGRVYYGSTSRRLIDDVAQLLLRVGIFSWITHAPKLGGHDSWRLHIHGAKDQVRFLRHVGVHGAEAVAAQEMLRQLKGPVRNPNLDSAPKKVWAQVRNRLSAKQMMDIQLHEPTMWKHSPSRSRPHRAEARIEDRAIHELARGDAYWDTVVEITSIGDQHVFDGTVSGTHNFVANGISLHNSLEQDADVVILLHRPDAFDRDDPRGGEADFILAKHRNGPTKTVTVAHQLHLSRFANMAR

H4 = experiment: Luminescence Cell-Based Dose Response HTS to Identify Activators of 5'UTR Stem-Loop Driven Prion Protein mRNA Translation in H4 Neuroglioblastoma Cells. [Related pubchem assays: 1829 (Project Summary), 1814 (Primary HTS)]; type: functional; conditions: Homo sapiens
[2] = Luminescence Cell-Based Dose Response HTS to Identify Activators of Luciferase Translation or Activity in H4 […] Cells. [Related pubchem assays: 1829 (Project Summary), 1814 (Primary HTS)]; type: functional
[3] = Luminescence Cell-Based Dose Confirmation HTS to Identify Activators of 5'UTR Stem-Loop Driven Alpha-Synuclein mRNA Translation in H4 Neuroglioblastoma Cells. [Related pubchem assays: 1829 (Project Summary), 1814 (Primary HTS)]; type: functional
[4] = cytotoxicity toward NIH3T3 fibroblasts, dose response, counter-screen, cell-based, ATP luminescence, mouse fibroblasts (AID 2010); type: functional;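 further: cells exposed to compound for about 90 hours before reading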
[5] = inhibitors of intracellular T. cruzi replication, confirmation, NIH3T3 host cells, beta-gal luminescence (AID 2044); type: functional, cell-based;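 further: intracellular parasites grown in NIH/3T3 mouse fibroblasts as host cells; luminescent beta-galactosidase reporter signal from transgenic T. cruzi replicating inside host cells; inhibitors lower the luminescence signal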
[6] = target: T3, Rac GTPase-activating protein 1 (Homo sapiens, UniProt Q9H0H5); experiment: MgcRacGAP GTPase-activating activity inhibitors, confirmation, biochemical, ADP Hunter fluorescence, primary and confirmatory (AID 624330); type: functional
T3 sequence (Q9H0H5 whole entry): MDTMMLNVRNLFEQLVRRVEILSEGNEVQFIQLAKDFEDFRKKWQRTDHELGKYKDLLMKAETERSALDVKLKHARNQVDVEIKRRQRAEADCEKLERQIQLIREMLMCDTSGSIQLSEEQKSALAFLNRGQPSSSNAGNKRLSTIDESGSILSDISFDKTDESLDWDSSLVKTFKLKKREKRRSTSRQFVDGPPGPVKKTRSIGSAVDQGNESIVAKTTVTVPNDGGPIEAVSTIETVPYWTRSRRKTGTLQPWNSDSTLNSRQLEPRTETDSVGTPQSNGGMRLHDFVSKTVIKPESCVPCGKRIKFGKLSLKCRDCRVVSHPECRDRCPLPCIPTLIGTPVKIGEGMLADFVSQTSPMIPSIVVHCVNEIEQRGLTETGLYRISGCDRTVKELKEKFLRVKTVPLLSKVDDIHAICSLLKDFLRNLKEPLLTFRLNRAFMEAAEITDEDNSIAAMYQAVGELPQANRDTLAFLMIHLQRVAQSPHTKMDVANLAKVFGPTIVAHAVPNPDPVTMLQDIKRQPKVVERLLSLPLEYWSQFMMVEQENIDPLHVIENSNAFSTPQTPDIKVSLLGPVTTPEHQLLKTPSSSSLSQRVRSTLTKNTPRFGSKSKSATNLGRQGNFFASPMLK

Streptokinase A = target: T4, Streptokinase A (Streptococcus pyogenes serotype M1, UniProt P10520); experiment: S. pyogenes streptokinase expression inhibitors, potency, dose response, plasminogen activation absorbance, OD405 (AID 1914); type: functional, Streptococcus pyogenes M1 GAS;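 further: secreted streptokinase activity via plasminogen activation per viability signal from cell pellet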
T4 sequence (P10520 whole entry): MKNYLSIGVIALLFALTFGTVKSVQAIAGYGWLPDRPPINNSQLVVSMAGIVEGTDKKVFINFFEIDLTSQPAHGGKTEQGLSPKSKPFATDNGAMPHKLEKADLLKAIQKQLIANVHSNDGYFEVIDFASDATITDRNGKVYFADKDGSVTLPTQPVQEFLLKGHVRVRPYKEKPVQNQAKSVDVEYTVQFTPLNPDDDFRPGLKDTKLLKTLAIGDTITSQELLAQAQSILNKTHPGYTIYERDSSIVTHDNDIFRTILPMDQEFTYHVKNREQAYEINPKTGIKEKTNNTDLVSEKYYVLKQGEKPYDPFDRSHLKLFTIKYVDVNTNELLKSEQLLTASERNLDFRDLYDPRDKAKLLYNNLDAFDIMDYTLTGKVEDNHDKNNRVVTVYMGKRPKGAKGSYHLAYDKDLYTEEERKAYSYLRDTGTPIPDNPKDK

[7] = system: Streptococcus sp. 'group A'; experiment: growth inhibition of control SK(-) GAS strain, dose response, counter-screen for streptokinase expression inhibitor project, luminescence, kanamycin, BacTiterGlo, confirmation (AID 1900); type: functional, organism-based
Streptococcus = experiment: Group A Streptococcus viability loss, dose response, counter-screen for streptokinase expression inhibitor project, luminescence, BacTiterGlo (AID 1915); type: functional, organism-based;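 further: potency for reduction of bacterial viability or growth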
INS1 = experiment: beta cell apoptosis inhibitors, cytokine rescue, dose response, luminescence, retest (AID 449756); type: functional, cell-based; conditions: Rattus norvegicus, INS1;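 further: cell death triggered by IL-1 beta plus TNF-alpha plus IFN-gamma mixture; protective hits raise ATP signal compared with cytokine alone wells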
Cytochrome P450 3A4 = Cytochrome P450 3A4 (Homo sapiens, UniProt P08684);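 further: CYP3A4 tested as one member of a cytochrome P450 panel screen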
Cytochrome P450 3A4, sequence (P08684 whole entry): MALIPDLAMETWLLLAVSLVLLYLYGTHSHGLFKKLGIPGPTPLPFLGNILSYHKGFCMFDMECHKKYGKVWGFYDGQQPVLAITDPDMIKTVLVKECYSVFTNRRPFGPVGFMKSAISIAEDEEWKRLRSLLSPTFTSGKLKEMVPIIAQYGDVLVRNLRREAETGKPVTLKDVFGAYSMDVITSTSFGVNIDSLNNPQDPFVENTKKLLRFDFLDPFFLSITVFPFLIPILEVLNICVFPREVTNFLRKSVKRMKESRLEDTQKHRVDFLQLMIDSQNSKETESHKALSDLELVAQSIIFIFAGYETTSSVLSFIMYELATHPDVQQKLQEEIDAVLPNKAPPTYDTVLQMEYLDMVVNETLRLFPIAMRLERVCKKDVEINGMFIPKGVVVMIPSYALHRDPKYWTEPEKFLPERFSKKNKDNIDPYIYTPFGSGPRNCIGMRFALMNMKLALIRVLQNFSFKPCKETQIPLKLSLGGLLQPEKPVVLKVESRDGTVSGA

| Compound | EC50 (Protein RecA) | AC50 [1] | IC50 [6] | also measured |
| --- | --- | --- | --- | --- |
| CC1Nc2ncnc(N3CCc4ccccc4C3)c2N(Cc2ccc(Cl)cc2)C1=O (configuration not stated) | 30.9 µM (active) | > 380 µM (inactive) | – | – |
| Cc1ccccc1C1=NC(c2ccc(F)cc2F)ON1 (configuration not stated) | – | – | – | EC50 (H4): 33.8 µM (active); EC50 [2]: 8.1 µM (active); EC50 [3]: 33.6 µM (active) |
| Cc1nc(OCc2ccccc2)c2sc3nc4c(cc3c2n1)COC(C)(C)C4 | – | – | – | EC50 (H4): > 120 µM (not active); EC50 [2]: 7.5 µM (active); EC50 [3]: 9.71 µM (active) |
| CN1CCc2nc(SC(C(=O)O)c3ccccc3)c(C#N)c(-c3cccs3)c2C1 (configuration not stated) | 12.3 µM (active) | > 380 µM (inactive) | – | EC50 [4]: > 30 µM (not active); EC50 [5]: 1.2 µM (active) |
| CC(C)NCC(=O)Nc1c2c(nc3ccccc13)CCC2 | – | – | 53.2 µM (active) | – |
| Cc1n[nH]c2c1C(c1ccsc1)C(C#N)=C(N)O2 (configuration not stated) | 4.1 µM (active) | 11 µM (active) | – | – |
| O=C(Oc1ccc2c(c1)OCO2)c1ccc(Br)c(S(=O)(=O)N2CCOCC2)c1 | – | – | 76.1 µM (active) | – |
| COc1ccccc1NS(=O)(=O)c1ccc(-c2cc(C)no2)s1 | – | – | – | EC50 (H4): > 120 µM (not active); EC50 [2]: > 30 µM (not active); EC50 [3]: > 120 µM (not active) |
| Cc1ccc(/C=N/N2CCN(Cc3ccccc3)CC2)s1 | – | – | – | EC50 (H4): > 120 µM (not active); EC50 [2]: 11.9 µM (active); EC50 [3]: 21 µM (active) |
| COc1ccc(Br)cc1[C@H]1[C@@H]2C=CCC[C@@]2(C)C(=O)N1Cc1ccccc1 | 26.7 µM (active) | > 380 µM (inactive) | – | EC50 (Streptokinase A): 37.6 µM (active); EC50 [7]: 7.12 µM (active); EC50 (Streptococcus): 11.1 µM (active) |
| CN1CCN(C2=C(Cl)C(=O)N(C3CCCCC3)C2=O)CC1 | – | – | – | EC50 (H4): > 120 µM (not active); EC50 [2]: 19.8 µM (active); EC50 [3]: 8.46 µM (active) |
| N#Cc1nc(N)nc(N(c2ccccc2)c2ccccc2)n1 | 66.6 µM (active) | 39.8 µM (active) | – | – |
| CC1=C(CC(=O)c2ccc(Cl)cc2)C(=O)c2ccccc2C1=O | 1.24 µM (active) | 7.84 µM (active) | – | AC50 (INS1): 8.26 µM (active) |
| CCOC(=O)Nc1ccc2c(C)cc(=O)oc2c1 | – | – | – | EC50 (H4): 12.9 µM (active); EC50 [2]: 30.9 µM (active); EC50 [3]: 13 µM (active) |
| Nc1ccc2c(c1)Cc1cc(N)c(Br)cc1-2 | – | – | 7.57 µM (active) | – |
| O=C(NNC(=S)Nc1ccccc1)c1cccs1 | – | – | – | EC50 (H4): 75.4 µM (active); EC50 [2]: 12.9 µM (active); EC50 [3]: 11.2 µM (active) |
| O=C(COc1ccccc1)N1CCN(CC2CC3C=CC2C3)CC1 (configuration not stated) | – | – | 175 µM (active) | – |
| CC1(C)CC(CCNC(=O)CCl)(c2ccccc2)CCO1 (configuration not stated) | 14.5 µM (active) | 179 µM (active) | – | – |
| O=C(CNC(=O)c1cccnc1)N/N=C/c1ccc(O)cc1O | – | – | 97.4 µM (active) | – |
| Nn1c(SCc2ccccc2F)nnc1-c1cccnc1 | – | – | – | EC50 (H4): 33.4 µM (active); EC50 [2]: 36.8 µM (active); EC50 [3]: 64.2 µM (active) |
| O=[N+]([O-])c1cccc(CN2CCN(Cc3ccco3)CC2)c1 | – | – | 98.5 µM (active) | – |
| COC(=O)c1[nH]c2ccccc2c1NC(=O)Oc1ccccc1 | – | – | 15.9 µM (active) | – |
| CC1(C)CC(=O)C=C(Nc2ccc(O)cc2)C1 | – | – | 20.2 µM (active) | – |
| COc1cccc(-c2cc(O)[nH]n2)c1 | 0.757 µM (active) | 2.51 µM (active) | – | – |
| COc1cc(/C=C/CN2CCN(CCC(C)C)C(CCO)C2)ccc1O (configuration not stated) | – | – | 101 µM (active) | – |
| COc1ccccc1Nc1nnc(S)s1 | – | – | 57.1 µM (active) | – |
| CC(C)(C)N=C(S)Nc1ccc(Nc2ccccc2)cc1 | – | – | 103 µM (active) | AC50 (Cytochrome P450 3A4): 11.2 µM (inconclusive) |
| CC(C)(C)c1[nH]nc2c1C(c1ccco1)C(C#N)=C(N)O2 (configuration not stated) | 1.21 µM (active) | 3.88 µM (active) | – | – |
| Oc1c2c(nn1-c1ccccc1)CCSC2 | 13.7 µM (active) | 12 µM (active) | – | – |
